Test results reported in patent US12649733B2, “3,6-diamino-pyridazin-3-yl derivatives, pharmaceutical compositions containing them and their uses as pro-apoptotic agents” (LES LABORATOIRES SERVIER, priority 2019, dated 2026).

What was measured:
H146 cells = assay: H146 cell viability, MTT assay; format: cell-based; settings: 48 h exposure
Method in brief: (§1)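 Viability read by MTT reduction (OD 540 nm after overnight SDS/HCl lysis) after 48 h compound treatment of cells in RPMI 1640/10% FBS. Triplicates at nine concentrations, 3.16-fold apart; four-parameter curve fitting yields IC50.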

MOLT-4 cells = assay: MOLT-4 cell viability, MTT assay; format: cell-based; settings: Homo sapiens, MOLT-4, 48 h, 48 h exposure
Method in brief: as §1

Bcl-xL protein = target: T1, Bcl-xL protein (Homo sapiens, UniProt Q07817, N197C); assay: Fluorescence quenching assay (PUMA peptide displacement); format: binding; settings: 1 nM protein, 400 nM peptide, 2 hours at 23° C.; KI determined from IC50
T1 construct: (2-197)[N197C]; His-His (two His8 stretches joined by a Gly/Ala/Ser/Thr linker)
From the text: Fluorescence quenching assay measures the change in fluorescence intensity of C-terminally Cy5-labeled BCL-xL protein, His-His-(EK)-hs ? (2-197)[N197C] (UniProtKB® primary accession number Q07817-1) having an amino acid sequence (SEQ ID:03): [[…] […] […] […] […]] which is linked in C-terminal region to the amino acid X which corresponds to a cysteine labeled on the sulfur with Sulfo-Cyanine5 from Lumiprobe GmbH catalogue number 13380, upon binding of a C-terminally labeled peptide derived from PUMA (UniProtKB® primary accession number Q9BXH1) having an aminoacid sequence (SEQ ID:04): [[…]] which is linked in C-terminal region to the amino acid X′ where X′ is cysteine labeled on the sulfur with TQ5WS from AAT Bioquest catalogue number 2079.
The addition of a compound which binds competitively to the same site as the peptide will result in an increase in the fluorescence intensity of the protein due to displacement of the fluorescence quencher.
An 11-point serial dilution of each compound was prepared in DMSO the final buffer conditions were 10 mM 4-(2-hydroxyethyl)-1-piperazineethanesulfonic acid [HEPES], 150 mM NaCl, 0.05% Tween 20, pH 7.4 and 5% DMSO. The final protein concentration in the assay was 1 nM with the peptide present at 400 nM. The experiments were incubated for 2 hours at 23° C. before fluorescence intensity was measured on a Biotek SynergyNeo plate reader (Excitation 620 nm, emission 680 nm). […] The KI values were determined from the IC50 values according to Cer et al, Nucleic Acids Res, 2009, Jul. 1: 37(WebServer issue): W441-W445.

T1 sequence (Q07817 2-197 N197C): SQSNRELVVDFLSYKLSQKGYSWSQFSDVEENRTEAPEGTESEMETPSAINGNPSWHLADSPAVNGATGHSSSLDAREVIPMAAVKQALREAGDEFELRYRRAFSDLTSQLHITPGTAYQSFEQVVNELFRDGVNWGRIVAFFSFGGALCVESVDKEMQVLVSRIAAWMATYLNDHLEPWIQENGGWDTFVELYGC

| SMILES | IC50 (H146 cells) [nM] | IC50 (MOLT-4 cells) [nM] | Ki (Bcl-xL protein) [nM] | IC50 (H146 cells; Homo sapiens, NCI-H146, 48 h) [nM] |
| --- | --- | --- | --- | --- |
| CNCC#Cc1cc(F)c(OCCCc2sc(N(C)c3cc(C)c(Nc4nc5ccccc5s4)nn3)nc2C(=O)O)cn1 [Example 197, 2-({6-[(1,3-Benzothiazol-2-yl)amino]-5-methylpyridazin-3-yl}(methyl)amino)-5-[3-({4-fluoro-6-[3-(methylamino)prop-1-yn-1-yl]pyridin-3-yl}oxy)propyl]-1,3-thiazole-4-carboxylic acid] | – | – | 0.0013 | 43.9 |
| Cc1cc(N(CCCC(O)C[N+](C)(C)CCCS(=O)(=O)[O-])c2nc(C(=O)O)c(CCCOc3ccc(/C=C/C=O)cc3F)s2)nnc1Nc1nc2ccccc2s1 (centres unmarked) [Example 228, 3-[[5-[[6-(1,3-Benzothiazol-2-ylamino)-5-methyl-pyridazin-3-yl]-[4-carboxy-5-[3-[2-fluoro-4-[(E)-3-oxoprop-1-enyl]phenoxy]propyl]thiazol-2-yl]amino]-2-hydroxy-pentyl]-dimethyl-ammonio]propane-1-sulfonate] | – | – | 0.22 | > 30000 |
| Cc1cc(N(C)c2ccc(-c3cnn(CC45CC6(C)CC(C)(C4)CC(OCCNCC[C@H](O)CO)(C6)C5)c3C)c(C(=O)O)n2)nnc1Nc1nc2ccccc2s1 [Example 247, 6-[{6-[(1,3-benzothiazol-2-yl)amino]-5-methylpyridazin-3-yl}(methyl)amino]-3-(1-{[3-(2-{[(3S)-3,4-dihydroxybutyl]amino}ethoxy)-5,7-dimethyladamantan-1-yl]methyl}-5-methyl-1H-pyrazol-4-yl)pyridine-2-carboxylic acid] | – | 2.81 | 0.0012 | – |
| Cc1cc(N(C)c2ccc(-c3cnn(CC45CC6(C)CC(C)(C4)CC(OCCN(C)C)(C6)C5)c3C)c(C(=O)O)n2)nnc1Nc1nc2ccccc2s1 [Example 250, 6-[{6-[(1,3-benzothiazol-2-yl)amino]-5-methylpyridazin-3-yl}(methyl)amino]-3-[1-{{3-[2-(dimethylamino)ethoxy]-5,7-dimethyladamantan-1-yl}methyl)-5-methyl-1H-pyrazol-4-yl]pyridine-2-carboxylic acid] | – | 0.246 | 0.0022 | – |
| Cc1cc(N(C)c2ccc(-c3cnn(CC45CC6(C)CC(C)(C4)CC(OCCNCCCO)(C6)C5)c3C)c(C(=O)O)n2)nnc1Nc1nc2ccccc2s1 [Example 268, 6-[[6-(1,3-benzothiazol-2-ylamino)-5-methyl-pyridazin-3-yl]-methyl-amino]-3-[1-[[3-[2-(3-hydroxypropylamino)ethoxy]-5,7-dimethyl-1-adamantyl]methyl]-5-methyl-pyrazol-4-yl]pyridine-2-carboxylic acid] | – | 0.255 | 0.0023 | – |
| COCCCNCCOC12CC3(C)CC(C)(CC(Cn4ncc(-c5ccc(N(C)c6cc(C)c(Nc7nc8ccccc8s7)nn6)nc5C(=O)O)c4C)(C3)C1)C2 [Example 269, 6-[[6-(1,3-benzothiazol-2-ylamino)-5-methyl-pyridazin-3-yl]-methyl-amino]-3-[1-[[3-[2-(3-methoxypropylamino)ethoxy]-5,7-dimethyl-1-adamantyl]methyl]-5-methyl-pyrazol-4-yl]pyridine-2-carboxylic acid] | – | 0.182 | 0.0027 | – |
| Cc1cc(N(C)c2ccc(-c3cnn(CC45CC6(C)CC(C)(C4)CC(OCCN4CCOCC4)(C6)C5)c3C)c(C(=O)O)n2)nnc1Nc1nc2ccccc2s1 [Example 270, 6-[[6-(1,3-benzothiazol-2-ylamino)-5-methyl-pyridazin-3-yl]-methyl-amino]-3-[1-[[3,5-dimethyl-7-(2-morpholinoethoxy)-1-adamantyl]methyl]-5-methyl-pyrazol-4-yl]pyridine-2-carboxylic acid] | – | 0.199 | 0.003 | – |
| Cc1cc(N(C)c2ccc(-c3cnn(CC45CC6(C)CC(C)(C4)CC(OCCNCCC(=O)O)(C6)C5)c3C)c(C(=O)O)n2)nnc1Nc1nc2ccccc2s1 [Example 271, 6-[[6-(1,3-benzothiazol-2-ylamino)-5-methyl-pyridazin-3-yl]-methyl-amino]-3-[1-[[3-[2-(2-carboxyethylamino)ethoxy]-5,7-dimethyl-1-adamantyl]methyl]-5-methyl-pyrazol-4-yl]pyridine-2-carboxylic acid] | – | 30.8 | 0.0033 | – |
| Cc1cc(N(C)c2ccc(-c3cnn(CC45CC6(C)CC(C)(C4)CC(OCCNCc4cccc(O)c4)(C6)C5)c3C)c(C(=O)O)n2)nnc1Nc1nc2ccccc2s1 [Example 272, 6-[[6-(1,3-benzothiazol-2-ylamino)-5-methyl-pyridazin-3-yl]-methyl-amino]-3-[1-[[3-[2-[(3-hydroxyphenyl)methylamino]ethoxy]-5,7-dimethyl-1-adamantyl]methyl]-5-methyl-pyrazol-4-yl]pyridine-2-carboxylic acid] | – | 0.284 | 0.0023 | – |

Now from value to compound:

| IC50 (H146 cells) [nM] | IC50 (MOLT-4 cells) [nM] | Ki (Bcl-xL protein) [nM] | IC50 (H146 cells; Homo sapiens, NCI-H146, 48 h) [nM] | SMILES |
| --- | --- | --- | --- | --- |
| 15 | 1.48 | 0.009 | – | Cc1cc(N(C)c2nc(C(=O)O)c(CCCOc3ccc(C#CC(C)N4CCOCC4)cc3F)s2)nnc1Nc1nc2ccccc2s1 (single isomer, unassigned) [Example 206, 2-[[6-(1,3-Benzothiazol-2-ylamino)-5-methyl-pyridazin-3-yl]-methyl-amino]-5-[3-[2-fluoro-4-((3R or 3S)-morpholinobut-1-ynyl)phenoxy]propyl]thiazole-4-carboxylic acid] |
| – | 314 | 0.0027 | – | Cc1cc(N(CCCP(=O)(O)O)c2nc(C(=O)O)c(CCCOc3ccc(C#CCN(C)C)cc3F)s2)nnc1Nc1nc2ccccc2s1 [Example 239, 2-({6-[(1,3-Benzothiazol-2-yl)amino]-5-methylpyridazin-3-yl}(3-phosphonopropyl)amino)-5-(3-{4-[3-(dimethylamino)prop-1-yn-1-yl]-2-fluorophenoxy}propyl)-1,3-thiazole-4-carboxylic acid] |
| – | 1320 | 0.0073 | – | Cc1cc(N(CCCS(=O)(=O)O)c2nc(C(=O)O)c(CCCOc3ccc(C#CCN(C)C)cc3F)s2)nnc1Nc1nc2ccccc2s1 [Example 240, 2-({6-[(1,3-Benzothiazol-2-yl)amino]-5-methylpyridazin-3-yl}(3-sulfopropyl)amino)-5-(3-{4-[3-(dimethylamino)prop-1-yn-1-yl]-2-fluorophenoxy}propyl)-1,3-thiazole-4-carboxylic acid] |
| – | 1190 | 0.0094 | – | Cc1cc(N(CCCCS(=O)(=O)O)c2nc(C(=O)O)c(CCCOc3ccc(C#CCN(C)C)cc3F)s2)nnc1Nc1nc2ccccc2s1 [Example 241, 2-({6-[(1,3-Benzothiazol-2-yl)amino]-5-methylpyridazin-3-yl}(4-sulfobutyl)amino)-5-(3-{4-[3-(dimethylamino)prop-1-yn-1-yl]-2-fluorophenoxy}propyl)-1,3-thiazole-4-carboxylic acid] |
| – | 525 | 0.0078 | – | Cc1cc(N(CCCCP(=O)(O)O)c2nc(C(=O)O)c(CCCOc3ccc(C#CCN(C)C)cc3F)s2)nnc1Nc1nc2ccccc2s1 [Example 242, 2-({6-[(1,3-Benzothiazol-2-yl)amino]-5-methylpyridazin-3-yl}(4-phosphonobutyl)amino)-5-(3-{4-[3-(dimethylamino)prop-1-yn-1-yl]-2-fluorophenoxy}propyl)-1,3-thiazole-4-carboxylic acid] |
| – | 112 | 0.005 | – | Cc1cc(N(CCCCC(=O)O)c2nc(C(=O)O)c(CCCOc3ccc(C#CCN(C)C)cc3F)s2)nnc1Nc1nc2ccccc2s1 [Example 243, 2-({6-[(1,3-Benzothiazol-2-yl)amino]-5-methylpyridazin-3-yl}(4-carboxybutyl)amino)-5-(3-{4-[3-(dimethylamino)prop-1-yn-1-yl]-2-fluorophenoxy}propyl)-1,3-thiazole-4-carboxylic acid] |
| – | 31.7 | 0.07 | – | C#CCCCN(c1cc(C)c(Nc2nc3ccccc3s2)nn1)c1nc(C(=O)O)c(CCCOc2ccc(C#CCNC)cc2F)s1 [Example 253, 2-[{6-[(1,3-benzothiazol-2-yl)amino]-5-methylpyridazin-3-yl}(pent-4-yn-1-yl)amino]-5-(3-{2-fluoro-4-[3-(methylamino)prop-1-yn-1-yl]phenoxy}propyl)-1,3-thiazole-4-carboxylic acid] |
| – | 43.8 | 0.016 | – | CNCC#Cc1ccc(OCCCc2sc(N(CCCCCN=[N+]=[N-])c3cc(C)c(Nc4nc5ccccc5s4)nn3)nc2C(=O)O)c(F)c1 [Example 267, 2-[5-azidopentyl-[6-[(1,3-benzothiazol-2-yl)amino]-5-methyl-pyridazin-3-yl]amino]-5-[3-[2-fluoro-4-[3-(methylamino)prop-1-ynyl]phenoxy]propyl]-1,3-thiazole-4-carboxylic acid] |
